Assay results published in patent publication US5371102A, “Compositions and methods of inhibiting thyroid activity” (priority 1993, dated 1994).
“Also recorded” adds a separate entry of the source.

How the values were obtained:
TPX = biological target: T1, TPX (Sus scrofa, UniProt P09933); assay: TPX-catalyzed iodide oxidation (triiodide formation), spectrophotometric; assay type: biochemical, hog
T1 sequence (P09933 15-926): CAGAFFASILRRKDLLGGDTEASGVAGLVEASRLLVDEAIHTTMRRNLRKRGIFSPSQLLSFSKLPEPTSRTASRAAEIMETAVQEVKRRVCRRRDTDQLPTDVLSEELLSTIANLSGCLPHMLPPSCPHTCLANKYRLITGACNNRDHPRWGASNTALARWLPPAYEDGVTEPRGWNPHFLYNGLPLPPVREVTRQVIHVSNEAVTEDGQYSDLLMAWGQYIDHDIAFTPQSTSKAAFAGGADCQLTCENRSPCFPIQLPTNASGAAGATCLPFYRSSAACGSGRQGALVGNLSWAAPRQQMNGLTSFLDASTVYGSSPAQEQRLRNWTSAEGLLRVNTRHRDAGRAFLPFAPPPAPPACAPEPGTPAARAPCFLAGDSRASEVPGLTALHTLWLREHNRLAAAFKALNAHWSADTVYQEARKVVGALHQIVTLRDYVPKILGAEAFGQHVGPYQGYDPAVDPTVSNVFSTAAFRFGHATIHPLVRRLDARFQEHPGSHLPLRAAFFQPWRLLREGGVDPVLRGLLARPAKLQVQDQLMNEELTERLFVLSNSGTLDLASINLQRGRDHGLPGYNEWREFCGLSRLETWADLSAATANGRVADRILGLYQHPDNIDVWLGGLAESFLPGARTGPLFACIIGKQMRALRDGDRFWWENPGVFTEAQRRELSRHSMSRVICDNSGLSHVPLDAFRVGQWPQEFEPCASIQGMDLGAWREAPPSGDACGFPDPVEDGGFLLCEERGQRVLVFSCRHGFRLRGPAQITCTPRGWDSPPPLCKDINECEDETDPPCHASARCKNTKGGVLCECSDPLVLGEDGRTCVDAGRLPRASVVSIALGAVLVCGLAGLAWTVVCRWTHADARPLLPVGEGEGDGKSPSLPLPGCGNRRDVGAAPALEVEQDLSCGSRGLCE
Description: (§1) Materials used in the examples below were obtained from the following sources. Bovine LPX, bovine liver catalase, glucose oxidase, 30% hydrogen peroxide, glucose, guaiacol, ABTS and deuterium oxide were purchased from Sigma Chemical Company. Selenium dioxide, MBI ^13 CH3 I and PBA were purchased from Aldrich Chemical Company and PBA was purified as previously described by Fieset et al., Reagents for Organic Synthesis, Vol. I, pp.135-139, John Wiley and Sons, N.Y. (1967). LPX purity was checked by PAGE, as described by Doerge, D.R., et al. in, Biochem. Pharmacol., Vol.36, pp.972-974 (1986). TPX was purified from hog thyroids obtained from a local slaughterhouse by published procedures. Doerge & Takazowa, Chemical Research in Toxicology, Vol. 3, pp. 98-101 (1990). TPX purity was determined by LC and its concentration determined spectophotometrically. Hydroperoxide concentrations were determined by iodometric titration, as described by Kolthoff, et al., in "Quantitative Chemical Analysis", Macmillan, London, pp.842-860 (1969). MMBI, and BI were synthesized by published procedures as described by Doerge, D.R., Biochem, Vol. 27, pp. 3697-3700 (1988) and were recrystallized from aqueous ethanol. MeBI was purified by distillation and DMeBI^+ was synthesized and purified by recrystallization from ethyl acetate/methanol. 1-^13 C-MMBI was synthesized from ^13 CH3 I according to the procedure disclosed by Doerge, D.R., in, J. Lab. Comp. and Radiopharm., Vol.25, pp.985-990 (1988). PPHP and PPA were prepared, purified and analyzed as previously described by Doerge, Biochem, Vol.27, p.11 (1988). The methyl ester of 1-methyl-benzimidazole-2-sulfinic acid was prepared by addition of hydrogen peroxide (5 equivalents of a 10 M solution) to MMBI (0.1 M) in methanol. The products, MeBI and the ester, were obtained following preparative TLC on silica (Uniplate, Analtech Co., Newark, DL) using 5% methanol/chloroform as eluant. […]
1,3-diacetyl MBI (AczMBI) was synthesized according to the method published by Doerge et al., Syn. […] Varying quantities of Ac2 MBI were incubated with TPX, H2 O2, and I^-. […]

LPX [1] = biological target: T2, LPX (Bos taurus, UniProt P80025); assay: LPX-catalyzed iodide ion oxidation (triiodide formation); assay type: biochemical, bovine
T2 construct: purchased Sigma Chemical Company
Description: as §1, with “methanol.” for “methanol. The products, MeBI and the ester, were obtained following preparative TLC on silica (Uniplate, Analtech Co., Newark, DL) using 5% methanol/chloroform as eluant.”
Inhibition of LPX activity by thiones was determined from the kinetics of iodide ion, guaiacol or ABTS oxidation assays conducted at 25° C. Kinetic parameters of suicide inactivation were determined as previously described. […]

LPX [2] = biological target: T2, LPX; assay: LPX-mediated covalent binding of labelled thiocarbamides to LPX; set-up: species or system bovine; conditions: +H2O2 vs. +H2O2 +KI; 14C- and 35S-labelled
Description: Materials used in the examples below were obtained from the following sources. Bovine LPX, bovine liver catalase, glucose oxidase, 30% hydrogen peroxide, glucose, guaiacol, ABTS and deuterium oxide were purchased from Sigma Chemical Company. Selenium dioxide, MBI ^13 CH3 I and PBA were purchased from Aldrich Chemical Company and PBA was purified as previously described by Fieset et al., Reagents for Organic Synthesis, Vol. I, pp.135-139, John Wiley and Sons, N.Y. (1967). LPX purity was checked by PAGE, as described by Doerge, D.R., et al. in, Biochem. Pharmacol., Vol.36, pp.972-974 (1986). TPX was purified from hog thyroids obtained from a local slaughterhouse by published procedures. Doerge & Takazowa, Chemical Research in Toxicology, Vol. 3, pp. 98-101 (1990). TPX purity was determined by LC and its concentration determined spectophotometrically. Hydroperoxide concentrations were determined by iodometric titration, as described by Kolthoff, et al., in "Quantitative Chemical Analysis", Macmillan, London, pp.842-860 (1969). MMBI, and BI were synthesized by published procedures as described by Doerge, D.R., Biochem, Vol. 27, pp. 3697-3700 (1988) and were recrystallized from aqueous ethanol. MeBI was purified by distillation and DMeBI^+ was synthesized and purified by recrystallization from ethyl acetate/methanol. 1-^13 C-MMBI was synthesized from ^13 CH3 I according to the procedure disclosed by Doerge, D.R., in, J. Lab. Comp. and Radiopharm., Vol.25, pp.985-990 (1988). PPHP and PPA were prepared, purified and analyzed as previously described by Doerge, Biochem, Vol.27, p.11 (1988). The methyl ester of 1-methyl-benzimidazole-2-sulfinic acid was prepared by addition of hydrogen peroxide (5 equivalents of a 10 M solution) to MMBI (0.1 M) in methanol. The products, MeBI and the ester, were obtained following preparative TLC on silica (Uniplate, Analtech Co., Newark, DL) using 5% methanol/chloroform as eluant.
LPX-mediated covalent binding of ^14 C- and ^35 S-labelled thiocarbamides to LPX under iodide-dependent and -independent conditions was measured.

In the case of Cn1c(=S)n(C)c2ccccc21 [DMMBI, 1,3-dimethylbenzimidazole-2-thione], the “effect on triiodide formation” value (TPX; TPX, H2O2 and I-) is reported as “causes a lag in triiodide formation, followed by an increase in the rate of triiodide formation approximating the control rate”, the “inhibition of iodide ion oxidation” value (TPX; TPX/hydrogen peroxide) is reported as “inhibits only iodide ion oxidation” and the “inhibition of iodide ion oxidation (triiodide formation)” value (LPX [1]; LPX, H2O2, iodide ion) is reported as “marked inhibition of iodide ion oxidation; also recorded: inhibits only iodide ion oxidation”. The lag period (LPX [1]; dependence on DMMBI concentration) was “proportional to the concentration of DMMBI” and the “covalent binding to LPX” value (LPX [2]) was “no binding over unstimulated controls”.
